# From patent US12180434B2, “Spiro compounds as malodor counteracting ingredients” (Firmenich SA, priority 2017, dated 2024)
# Where a name gives a salt, the structure may show the parent alone.
# Molecular target: T1, OR51E1 olfactory receptor (Homo sapiens, UniProt Q8TCB6)
# T1 construct: expressed in transfected cells
# T1 sequence (Q8TCB6 1-318): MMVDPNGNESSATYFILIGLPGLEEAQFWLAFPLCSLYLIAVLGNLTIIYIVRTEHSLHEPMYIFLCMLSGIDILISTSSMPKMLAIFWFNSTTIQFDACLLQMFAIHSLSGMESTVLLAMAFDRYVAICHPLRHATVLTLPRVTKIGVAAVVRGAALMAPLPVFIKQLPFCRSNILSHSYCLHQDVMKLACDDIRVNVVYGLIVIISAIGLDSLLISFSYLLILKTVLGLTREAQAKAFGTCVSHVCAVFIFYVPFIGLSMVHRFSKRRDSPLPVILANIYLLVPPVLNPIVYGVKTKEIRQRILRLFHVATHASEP
# Assay: Inhibitory dose-response assay in a cell line expressing the butyric acid olfactory receptor OR51E1
# Assay type: cell-based
# Conditions: highly stringent screening conditions; cells treated with 67 μM butyric acid (EC94); read-out: calculated IC50, inhibitor of the butyric acid olfactory receptor OR51E1
row,IC50,SMILES
1,45.2 µM,"CC(=O)O[C@@H]1C(C)(C)CCC[C@]12CC=C(C)C[C@H]2C (racemic) [Compound 1, (1RS,6RS,11RS)-2,2,9,11-tetramethylspiro[5.5]undec-8-en-1-yl acetate]"
2,68.6 µM,"CC(=O)O[C@H]([C@H]1CCCC[C@@H]1C)C(C)(C)C (racemic) [Compound 14, (1RS)-2,2-dimethyl-1-[(1SR,2SR)-2-methylcyclohexyl]propyl acetate]"
3,18.6 µM,"CC(=O)OC1C(C)(C)CCCC12CC(C)=C(C)C2 (centres unmarked) [Compound 2, (2,3,9,9-tetramethylspiro[4.5]dec-2-en-10-yl) acetate]"
4,4.74 µM,"CC(=O)OC1C(C)(C)CCCC12C(C)C=CCC2C (centres unmarked) [Compound 3, (1,5,10,10-tetramethylspiro[5.5]undec-3-en-11-yl) acetate]"
5,46.9 µM,"CC1CC=CCC12CCCC(C)(C)C2OC=O (centres unmarked) [Compound 5, (5,10,10-trimethylspiro[5.5]undec-2-en-11-yl) formate]"
6,78.1 µM,"CC(=O)OC1C(C)(C)CCCC12CC=C(C)CC2C (centres unmarked) [Compound 6, (3,5,10,10-tetramethylspiro[5.5]undec-2-en-11-yl) acetate]"
7,84.3 µM,"CC(=O)OC1C(C)(C)CCCC12CC=CC2 (centres unmarked) [Compound 7, (9,9-dimethylspiro[4.5]dec-2-en-10-yl) acetate]"
8,193 µM,"COC1C(C)(C)CCCC12CC=CC2 (centres unmarked) [Compound 8, 10-methoxy-9,9-dimethylspiro[4.5]dec-2-ene]"
9,805 µM,"CC1CCCCC12CCCCC2O (centres unmarked) [Compound 12, 11-methylspiro[5.5]undecan-5-ol]"
10,43.4 µM,"CC(=O)OC(C1C(C)C=C(C)CC1C)C(C)(C)C (centres unmarked) [Compound 17, [2,2-dimethyl-1-(2,4,6-trimethylcyclohex-3-en-1-yl)propyl]acetate]"

# Same assay, conditions: table; butyric acid at EC80, EC87, EC90, or EC100; read-out: IC50
row,IC50,SMILES
1,170 µM,"CC(=O)O[C@H]([C@H]1CCCC[C@@H]1C)C(C)(C)C (racemic) [Compound 14, (1RS)-2,2-dimethyl-1-[(1SR,2SR)-2-methylcyclohexyl]propyl acetate]"
